Assays:
Pan02 tumor cells = test: Anti-tumor efficacy in Pan02 syngeneic mouse model of pancreatic carcinoma; type: in vivo; conditions: Pan02 s.c., C57BL/6 mice
Excerpt: Six to eight-week-old female C57BL/6 mice were used in the studies as supplied by Beijing Vital River Laboratory Animal Technology Co., Ltd. Mice received food and water ad libitum. The study protocol and the procedures involving the care and use of animals were reviewed and approved by the Institutional Animal Care and Use Committee (IACUC) to ensure compliance with the regulations of the Association for Assessment and Accreditation of Laboratory Animal Care (AAALAC).
Stock solutions of the PD-1 antagonist at 1 mg/ml concentrations were prepared and kept at 4° C. prior to use. Dosing solutions of the PD-1 antagonist were prepared freshly at a concentration of 1 mg/ml before every administration in sterile phosphate buffered saline (PBS), adjusted to pH 7.0, and administered at a dose of 10 mg/kg intraperitoneally (i.p) per 20 g mouse. […] Talabostat mesylate was obtained from a commercial source, and prepared freshly at a working concentration of 0.1 mg/ml before every administration in sterile phosphate buffered saline (pH 7.0), maintained at 4° C., and administered perorally (p.o.) at a total dose of 20 μg per 20 g mouse.
The tumor cells were routinely sub-cultured twice per week bytrypsin-EDTA treatment. The cells in anexponential growth phase were harvested and counted for tumor inoculation. […] The date of tumor cell inoculation was denoted as Day 0.
The dosing of the agents was started on day 5 after tumor inoculation and continued until Day 28 after tumor inoculation.
Body weight (in grams), and tumor volumes (in mm^3) were measured on Days 5, 8, 12, 15, 19, 22, 26 and 29. […] Tumor volume, expressed in mm^3, was measured with a calliper.
Data related to tumor volume are presented as mean and the standard error of the mean (SEM). Statistical analyses were conducted using Student's t-test. P<0.05 and P<0.001 were considered statistically significant.
% Tumor reduction=(Mean tumor volume^vehicle control−Mean tumor volume^treatmet_group)/Mean tumor volume^vehicle control×100Table 1B. Results

[1] = system: Ly6G+ cells (tumoricidal neutrophils); test: IHC of neutrophil infiltrate in Pan02 tumor samples; conditions: Day 8; compared to vehicle and PD-1 antagonist alone
Procedure: Tumor samples from the study groups were analyzed for infiltration of immune cells. […] The data was analyzed using GraphPad Prism 5. p<0.05 was statistically significant (*, p<0.05; **, p<0.01; ***, p<0.001).

melanoma = melanoma patients; Postow et al. 2015; cited from earlier work

| Compound | % Tumor Reduction compared to vehicle control (Pan02 tumor cells; Day 19 after tumor inoculation) [%] | % Tumor Reduction compared to vehicle control (Pan02 tumor cells; Day 22 after tumor inoculation) [%] | % Tumor Reduction compared to vehicle control (Pan02 tumor cells; Day 26 after tumor inoculation) [%] | % Tumor Reduction compared to vehicle control (Pan02 tumor cells; Day 29 after tumor inoculation) [%] | Ly6G+ cells in tumor (IHC) [1] | response rate (melanoma) [%] |
| --- | --- | --- | --- | --- | --- | --- |
| CC(C)[C@H](N)C(=O)N1CCC[C@H]1B(O)O.CS(=O)(=O)O [Talabostat mesylate, [(2R)-1-[(2S)-2-amino-3-methylbutanoyl]pyrrolidin-2-yl]boronic acid; methanesulfonic acid] | 61.23 | 58.18 | 65.42 | 65.61 | significant increase | – |
| nivolumab | – | – | – | – | – | 32 |
| ipilimumab: human monoclonal anti-CTLA-4 antibody | – | – | – | – | – | 11 |

From US20200317784A1, “METHODS AND COMPOSITIONS FOR TREATING CANCER BY MODIFYING MULTIPLE ARMS OF THE IMMUNE SYSTEM” (BioXcel Therapeutics, Inc., priority 2017, published 2020)
